Assay results from the NIST ThermoML archive (doi:10.1016/j.fluid.2015.11.037).
± gives the expanded uncertainty stated by the source.

Columns and labels:
[1] = activity coefficient (dimensionless); of the first substance listed, at infinite dilution; xn = mol fraction of the nth substance listed; settings: Liquid, x1 = 0
[2] = Liquid, Ebulliometric method (Recirculating still)
[3] = 333.15 K, 100 kPa, Rayleigh distillation
[4] = 303.15 K, 100 kPa, Rayleigh distillation
[5] = 313.15 K, 100 kPa, Rayleigh distillation
[6] = 323.15 K, 100 kPa, Rayleigh distillation
[7] = 293.15 K, 46.85 kPa, comparative ebulliometry
[8] = 303.15 K, 69.6 kPa, comparative ebulliometry
[9] = 311.15 K, 93.62 kPa, comparative ebulliometry

An activity coefficient ([1]; 293.15 K, 100 kPa, differential distillation) of 7.68 ± 0.65, an activity coefficient ([1]; 303.15 K, 100 kPa, differential distillation) of 6.18 ± 0.51 and an activity coefficient ([1]; 311.15 K, 100 kPa, differential distillation) of 5.43 ± 0.57 were found for `CCCCO` [butan-1-ol] + ClCCl in this work.

For `ClCCl` [dichloromethane], the “vapor or sublimation pressure” value ([2]; 285.89 K) was 34.66 ± 0.065 kPa, the “vapor or sublimation pressure” value ([2]; 287.58 K) was 37.33 ± 0.068 kPa and the “vapor or sublimation pressure” value ([2]; 289.94 K) was 41.33 ± 0.073 kPa. For the same compound, the “vapor or sublimation pressure” value ([2]; 292.12 K) was 45.33 ± 0.078 kPa, the “vapor or sublimation pressure” value ([2]; 294.15 K) was 49.33 ± 0.083 kPa and the “vapor or sublimation pressure” value ([2]; 296.05 K) was 53.33 ± 0.09 kPa. For the same compound, the “vapor or sublimation pressure” value ([2]; 298.41 K) was 58.66 ± 0.095 kPa, the “vapor or sublimation pressure” value ([2]; 300.61 K) was 63.99 ± 0.1 kPa and the “vapor or sublimation pressure” value ([2]; 302.67 K) was 69.33 ± 0.11 kPa. For the same compound, the “vapor or sublimation pressure” value ([2]; 304.61 K) was 74.66 ± 0.12 kPa, the “vapor or sublimation pressure” value ([2]; 306.43 K) was 79.99 ± 0.12 kPa and the “vapor or sublimation pressure” value ([2]; 308.17 K) was 85.33 ± 0.13 kPa. For the same compound, the “vapor or sublimation pressure” value ([2]; 309.82 K) was 90.66 ± 0.13 kPa and the “vapor or sublimation pressure” value ([2]; 311.39 K) was 95.99 ± 0.14 kPa.

An activity coefficient ([1]; 283.15 K, 100 kPa, inert gas stripping) of 1.85 ± 0.1, an activity coefficient ([1]; 293.15 K, 100 kPa, inert gas stripping) of 1.86 ± 0.11 and an activity coefficient ([1]; 303.15 K, 100 kPa, inert gas stripping) of 1.86 ± 0.11 were found for `ClCCl` [dichloromethane] + CCCCO in this work. The activity coefficient ([1]; 313.15 K, 100 kPa, inert gas stripping) was 1.86 ± 0.11, the activity coefficient ([1]; 323.15 K, 100 kPa, inert gas stripping) was 1.83 ± 0.1 and the activity coefficient ([1]; 333.15 K, 100 kPa, inert gas stripping) was 1.76 ± 0.1.

An activity coefficient ([1]; 283.15 K, 100 kPa, Inert gas stripping) of 1.99 ± 0.12, an activity coefficient ([1]; 293.15 K, 100 kPa, Inert gas stripping) of 2 ± 0.16 and an activity coefficient ([1]; 303.15 K, 100 kPa, Inert gas stripping) of 2.02 ± 0.16 were found for `ClCCl` [dichloromethane] + CCCO in this work. It also gave an activity coefficient ([1]; 313.15 K, 100 kPa, Inert gas stripping) of 2.05 ± 0.16, an activity coefficient ([1]; 323.15 K, 100 kPa, Inert gas stripping) of 2.04 ± 0.16 and an activity coefficient ([1]; 333.15 K, 100 kPa, Inert gas stripping) of 2.02 ± 0.16. It also gave an activity coefficient [1, 3] of 2.06 ± 0.16.

An activity coefficient [1, 4] of 2.29 ± 0.18, an activity coefficient [1, 5] of 2.3 ± 0.18 and an activity coefficient [1, 6] of 2.29 ± 0.18 were found for `ClCCl` [dichloromethane] + CCO in this work. For the same compound, the activity coefficient [1, 3] was 2.27 ± 0.18 and the activity coefficient ([1]; 343.15 K, 100 kPa, Rayleigh distillation) was 2.18 ± 0.25.

An activity coefficient ([1]; 293.15 K, 100 kPa, Rayleigh distillation) of 2.84 ± 0.24, an activity coefficient [1, 4] of 2.87 ± 0.23 and an activity coefficient [1, 5] of 2.87 ± 0.23 were found for `ClCCl` [dichloromethane] + CO in this work. It also gave an activity coefficient [1, 6] of 2.83 ± 0.23 and an activity coefficient [1, 3] of 2.81 ± 0.22.

An activity coefficient [1, 7] of 9.56 ± 0.78, an activity coefficient [1, 8] of 7.98 ± 0.65 and an activity coefficient [1, 9] of 7.09 ± 0.58 were found for `CCO` [ethanol] + ClCCl in this work.

An activity coefficient [1, 7] of 13.4 ± 1.3, an activity coefficient [1, 8] of 11.6 ± 1.1 and an activity coefficient [1, 9] of 9.86 ± 0.89 were found for `CO` [methanol] + ClCCl in this work.

An activity coefficient [1, 7] of 8.38 ± 0.7, an activity coefficient [1, 8] of 6.99 ± 0.61 and an activity coefficient [1, 9] of 5.98 ± 0.51 were found for `CCCO` [propan-1-ol] + ClCCl in this work.
